Tests used:
PLDS patients = format: in vivo, human
Protocol: An orally administered checklist monitored symptoms; sequential VCS testing was performed. […] No antibiotics or other therapeutic interventions were administered during the study. Diagnostic parameters used by referring physicians included a history of erythema chronicum migrans (ECM) rash, ELISA assay, Borrelia burgdorferi Western blot, LUAT assay, PCR, CSF antibodies to B. burgdorferi and culture. Patients with a clinical diagnosis of PLDS but without a positive serologic test were included at the discretion of the attending physician.

[1] = test system: macrophage release of pro-inflammatory cytokines, including TNF and IL1B; details: intraventricular instillation; cited from earlier work
SBS patients = details: human, in vivo

CCc1ccc(CCOc2ccc(CC3SC(=O)NC3=O)cc2)nc1 (stereo not shown) [pioglitazone]
adverse effects from pioglitazone, including hypoglycemia or abnormal liver function tests (PLDS patients; 45 mg daily for 10 days): No patients had adverse effects | patients with significant intensification of symptoms, not severe enough to stop treatment (PLDS patients; of 241 patients receiving pioglitazone, CSM added on day 6): 5 patients

Ser-Tyr-Ser-Met-Glu-His-Phe-Arg-Trp-Gly-Lys-Pro-Val [αMSH]
macrophage release of pro-inflammatory cytokines, including TNF and IL1B [1]: down-regulation of macrophage release of pro-inflammatory cytokines

cholestyramine [CSM]
other complications of therapy (SBS patients): No other significant complications of therapy were noted

— US20030219400A1 (priority 2002, published 2003)
